Measured values published in publication PMC9181987, “Disclosing the Potential of Fluorinated Ionic Liquids as Interferon-Alpha 2b Delivery Systems” (Nanomaterials, 2022).

Legend:
[1] = cited from earlier work
[2] = target: T1, IFN-α 2b (Homo sapiens, UniProt P01563); test: Microscale thermophoresis (MST) binding affinity of FILs with labelled IFN-α 2b; settings: for Kd: labelled IFN-α 2b 2.7 μM, 5 mM NaH2PO4 pH 7.4, 25 °C, ± = Kd confidence of the fitting
T1 construct: purchased Sigma-Aldrich SRP4595; host or cells: E. coli
Protocol: Several dilution series of 16 samples of 20 μL were prepared in triplicate for each studied system. All the solutions were prepared in the buffer of the protein, 5 mM of NaH2PO4 (pH = 7.4), and PCR tubes. In the first tube (1 out 16) 20 μL of FIL stock solution was added at twofold the maximum concentration defined for each assay. In the remaining 15 tubes, 10 μL of buffer was added, followed by the series dilution of the FIL. […] The selected concentrations cover the range where the distinct CACs are formed in each FIL. The excitation power was determined by a pre-test and set to 20% whereas the MST power was set to medium (standard). The assays were executed in standard capillaries and triplicates. The results were processed using the MO.Affinity Analysis v2.3 software (NanoTemper Technologies, Munich, Germany).
In the process of labelling, commonly, one amine per protein is labelled, statistically distributing the position of the dye. […] As explained in the experimental section, in each run of MST, a maximum concentration is chosen and is consecutively diluted in 16 capillaries.

[3] = Dynamic light scattering: aggregate size and polydispersity index; type: physicochemical; settings: 150 mM NaH2PO4, 25°C
Protocol: These concentrations were chosen to comprise two different aggregates of each FIL, above the 1st CAC and the 3rd CAC. […] Therefore, 20 μL was transferred into a quartz cell of 10 mm pathlength and measured at 25 °C.
Moreover, the polydispersity index (PdI) was obtained by DLS which determines the heterogeneity of the sample in the function of the size.

[4] = Tensiometry (Du Noüy ring): surface tension breakpoints, surface properties, critical packing parameters; type: physicochemical; settings: 25°C
Protocol: (§1) The force tensiometer is equipped with a platinum Du Noüy ring to surface tension measurement and a thermostatic vessel connected to a bath circulator (RW-0535G, Lab. Companion, Daejeon, Republic of Korea) in order to keep the temperature of the solution constant. Next, 15 mL of each sample was placed in a glass container and left to equilibrate in the thermostatic vessel. After temperature equilibration, the surface tension was measured. The equipment is a standalone-controlled instrument, and the calibration was conducted with a calibration weight with a known mass before measuring the samples. Each sample was measured five times, and the reported surface tension was the average value with an uncertainty of ±0.22 mN/m. Each solution was then assessed by a KSV’s contact angle goniometer CAM100 (Biolin Scientific, Gothenburg, Sweden). A drop of each solution was placed on a Teflon surface with a Hamilton syringe. This equipment is a PC-controlled instrument, and the tilt was set to 0 degrees at the base of the drop and was recorded for 10 frames with an interval of 1 s. The contact angle was calculated for the left and right sides of the drop and the mean value was the resulting contact angle. At least five different drops of each solution were recorded, and the reported contact angle was the resulting average with an uncertainty of ±5%.
After the evaluation of the CACs, other properties can be taken from the surface tension data. […] The n parameter is deduced from the degree of ionization of aggregates, α, as n = 2 − α, determined from the conductivity profile of the FIL and assumed to be the same for the surface layer in ionic surfactants.
From the Γmax and Avogadro’s number (NA) the minimum area occupied per surfactant molecule at the air/water interface, Amim, can be obtained as set by:(4) Amin=10^18/NAΓmax
In addition, the parameter that explains the efficacy of a surfactant to reduce the surface tension, ΠCAC, was determined, expressing the maximum surface tension diminution resulting from the dissolution of surfactant molecules. This parameter is determined by the surface tension of the solvent ( γ0 ) and the γCAC , as follows:(5) ΠCAC=γ0−γCAC
Them, from ΠCAC, the standard free energy of adsorption, ΔGad0 , was calculated using the following equation [55]:(6) ΔGad0=ΔGagg0−ΠCAC/Γmax
Finally, aiming to disclose information on the self-aggregation process and the shape of the aggregates, the critical packing parameter, P, was also calculated in this work, as follows:(7) P=V0/Aminlc where V0 and lc are the volume occupied by the hydrophobic chains in the aggregate core and the critical chain length, respectively. The structure of the aggregates is defined as spherical when P ≤ 0.33, cylindrical for P ≤ 0.5, lamellar when P ≤ 1, and inverted for P > 1 [38].

[5] = Contact angle goniometry breakpoints; type: physicochemical; settings: 25°C
Protocol: as §1

[6] = set-up: method as in earlier work; settings: Water, 25°C, ref [1]; cited from earlier work
[7] = 5 μg/mL IFN-α 2b + 5 mM NaH2PO4 (pH=7.4), 1st breakpoint
[8] = 5 μg/mL IFN-α 2b + 5 mM NaH2PO4 (pH=7.4), 2nd breakpoint
[9] = 5 μg/mL IFN-α 2b + 5 mM NaH2PO4 (pH=7.4), 3rd breakpoint
[10] = 5 μg/mL IFN-α 2b + 5 mM NaH2PO4 (pH=7.4), 4th breakpoint

T1 sequence (P01563 24-188): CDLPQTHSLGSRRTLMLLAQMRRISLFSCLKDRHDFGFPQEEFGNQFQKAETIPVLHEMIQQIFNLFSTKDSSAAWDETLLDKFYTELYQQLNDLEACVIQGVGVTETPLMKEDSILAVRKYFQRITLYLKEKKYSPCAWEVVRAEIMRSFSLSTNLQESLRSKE

For `CCn1cc[n+](C)c1.O=S(=O)([O-])C(F)(F)C(F)(F)C(F)(F)C(F)(F)F` [[C2C1Im][C4F9SO3], 1-Ethyl-3-methylimidazolium perfluorobutanesulfonate], the toxicity [1] is listed as “negligible toxicity”, the Kd ([2]; assay 30 − 9.2 × 10^−4 mM FIL) is listed as 0.136 ± 0.117 mM and the Kd ([2]; assay 80 − 2.4 × 10^−3 mM FIL) is listed as 7.53 ± 5.61 mM. For the same compound, the Kd ([2]; assay 160 − 4.9 × 10^−3 mM FIL) was 40.5 ± 29.5 mM, the “binding to IFN-α 2b (MST)” value ([2]; range of concentrations under the 1st CAC, only FIL monomers) was “no binding was detected” and the “Polydispersity index (PdI)” value ([3]; 29.3 mM FIL) was 1.000. For the same compound, the “Polydispersity index (PdI)” value ([3]; 243.8 mM FIL) was 0.157, the “CAC (wFIL), tensiometer” value [4, 7] was 0.0008 and the “CAC, tensiometer” value [4, 7] was 1.963 mmol⸱kg-1. For the same compound, the “surface tension at CAC, γCAC” value [4, 7] was 51.4 mN m-1, the “CAC (wFIL), tensiometer” value [4, 8] was 0.0025 and the “CAC, tensiometer” value [4, 8] was 6.105 mmol⸱kg-1. For the same compound, the “surface tension at CAC, γCAC” value [4, 8] was 48.2 mN m-1, the “CAC (wFIL), tensiometer” value [4, 9] was 0.0089 and the “CAC, tensiometer” value [4, 9] was 21.61 mmol⸱kg-1. For the same compound, the “surface tension at CAC, γCAC” value [4, 9] was 38.3 mN m-1, the “10^6 Γmax, maximum surface excess concentration” value [4, 10] was 4.41 mol m-2 and the “Amin, minimum area per surfactant molecule at the air/water interface” value [4, 10] was 0.38 nm2. The “CAC (wFIL), tensiometer” value [4, 10] was 0.0335, the “CAC, tensiometer” value [4, 10] was 81.59 mmol⸱kg-1 and the “critical packing parameter Peq 8” value [4, 10] was 0.7439. The “critical packing parameter Peq 9” value [4, 10] was 0.7481, the “surface tension at CAC, γCAC” value [4, 10] was 24.3 mN m-1 and the “ΔG0ad, standard free energy of adsorption” value [4, 10] was -7.734 kcal/mol. The “ΠCAC, efficacy to reduce the surface tension” value [4, 10] was 37.8 mN m-1, the “10^6 Γmax, maximum surface excess concentration” value ([4]; 5 mM NaH2PO4 (pH=7.4)) was 3.26 mol m-2 and the “Amin, minimum area per surfactant molecule at the air/water interface” value ([4]; 5 mM NaH2PO4 (pH=7.4)) was 0.51 nm2. The “CAC (wFIL), tensiometer” value ([4]; 5 mM NaH2PO4 (pH=7.4)) was 0.0330, the “CAC, tensiometer” value ([4]; 5 mM NaH2PO4 (pH=7.4)) was 80.35 mmol⸱kg-1 and the “critical packing parameter Peq 8” value ([4]; 5 mM NaH2PO4 (pH=7.4)) was 0.550. The “critical packing parameter Peq 9” value ([4]; 5 mM NaH2PO4 (pH=7.4)) was 0.553, the “surface tension at CAC, γCAC” value ([4]; 5 mM NaH2PO4 (pH=7.4)) was 24.6 mN m-1 and the “ΔG0ad, standard free energy of adsorption” value ([4]; 5 mM NaH2PO4 (pH=7.4)) was -9.8 kcal/mol. For the same compound, the “ΠCAC, efficacy to reduce the surface tension” value ([4]; 5 mM NaH2PO4 (pH=7.4)) was 46.4 mN m-1, the “CAC (wFIL), goniometer” value [5, 7] was 0.0009 and the “CAC, goniometer” value [5, 7] was 2.101 mmol⸱kg-1. For the same compound, the “CAC (wFIL), goniometer” value [5, 8] was 0.0030, the “CAC, goniometer” value [5, 8] was 7.288 mmol⸱kg-1 and the “CAC (wFIL), goniometer” value [5, 9] was 0.0157. For the same compound, the “CAC, goniometer” value [5, 9] was 38.18 mmol⸱kg-1, the “CAC (wFIL), goniometer” value [5, 10] was 0.0430 and the “CAC, goniometer” value [5, 10] was 104.7 mmol⸱kg-1. The “CAC (wFIL), goniometer” value ([5]; 5 mM NaH2PO4 (pH=7.4)) was 0.0329, the “CAC, goniometer” value ([5]; 5 mM NaH2PO4 (pH=7.4)) was 80.27 mmol⸱kg-1 and the “First CAC” value [6] was 14.55 mmol/kg. The “First CAC (wFIL)” value [6] was 0.0060, the “Gibbs free energy of aggregation ΔG0agg, First CAC” value [6] was -5.9 kcal/mol and the “Gibbs free energy of aggregation ΔG0agg, Second CAC” value [6] was -4.97 kcal/mol. For the same compound, the “Gibbs free energy of aggregation ΔG0agg, Third CAC” value [6] was -6.57 kcal/mol, the “Second CAC” value [6] was 38.54 mmol/kg and the “Second CAC (wFIL)” value [6] was 0.0158. The “Third CAC” value [6] was 81.03 mmol/kg, the “Third CAC (wFIL)” value [6] was 0.0332 and the “ionization degree α, First CAC” value [6] was 0.79. For the same compound, the “ionization degree α, Second CAC” value [6] was 0.84 and the “ionization degree α, Third CAC” value [6] was 0.29.
